Laboratory results from patent US4347319A, “Microbiological epoxidation process” (priority 1980, dated 1982).
Like-named read-outs stand apart in the source and are kept apart here.

Experiments:
[1] = test system: purified secondary alcohol dehydrogenase from Pichia sp. NRRL Y-11,328; assay: Substrate specificity, electron acceptor and stoichiometry of purified yeast SADH; type: biochemical; conditions: examined spectrophotometrically
[2] = test system: cell extract of Pichia sp. NRRL-Y-11,328; assay: Oxidation of secondary alcohols to methylketone by cell extracts of yeasts; type: biochemical; conditions: methanol-grown; cell extract + NAD^+; sec. alcohol to methyl ketone; gas chromatography
[3] = test system: Candida utilis ATCC 26387; assay: Oxidation of sec-alcohols to ketones by cell suspensions of yeasts; type: cell-based; conditions: sec-alcohol to methyl ketone
[4] = test system: cell extract of Candida utilis ATCC 26,387; assay: Oxidation of secondary alcohols to methylketone by cell extracts of yeasts; type: biochemical; conditions: methanol-grown; cell extract + NAD^+; sec. alcohol to methyl ketone; gas chromatography
[5] = test system: cell extract of Kloeckera sp. strain A2 NRRL-Y-11,420; assay: as above; type: biochemical; conditions: methanol-grown; cell extract + NAD^+; sec. alcohol to methyl ketone; gas chromatography
[6] = test system: Kloeckera sp. Strain A2 (NRRLY-11,420); assay: Oxidation of sec-alcohols to ketones by cell suspensions of yeasts; type: cell-based; conditions: sec-alcohol to methyl ketone
[7] = test system: Torulopsis sp. Strain A1 (NRRLY-11,419); assay: as above; type: cell-based; conditions: sec-alcohol to methyl ketone
[8] = test system: Hansenula polymorpha ATCC 26012; assay: as above; type: cell-based; conditions: sec-alcohol to methyl ketone
Pichia sp. NRRL-Y-11328 = assay: as above; type: cell-based; conditions: sec-alcohol to methyl ketone
[9] = test system: cell extract of Hansenula polymorpha ATCC 26,012; assay: Oxidation of secondary alcohols to methylketone by cell extracts of yeasts; type: biochemical; conditions: methanol-grown; cell extract + NAD^+; sec. alcohol to methyl ketone; gas chromatography
[10] = test system: cell extract of Torulopsis sp. strain A1 NRRL-Y-11,419; assay: as above; type: biochemical; conditions: methanol-grown; cell extract + NAD^+; sec. alcohol to methyl ketone; gas chromatography
[11] = test system: Methylococcus capsulatus CRL M1 NRRL B-11,219; assay: Sec. alcohol oxidation by cell suspensions of methanol-grown cells; type: cell-based; conditions: sec. alcohol to methyl ketone
Text: (§1) In this example, the procedure of Example 1 was repeated except that a plurality of the methane-utilizing methylotrophic microorganisms of the invention were each aerobically grown in a methanol-containing nutrient medium instead of a methane-containing medium. The nutrients in the medium were the same as indicated in Example 1 except that 0.4% v/v methanol was used as the alcohol dehydrogenase enzyme inducer and major source of carbon and energy for growth. Following growth the cells were harvested and washed as described in Example 1. The resting cells of the induced methanol-grown methylotrophic microorganisms were then contacted with a […] under aerobic conditions in a buffered solution by the procedure described in Example 1.

[12] = test system: Methylobacter chroococcum CRL M6 NRRL B-11,214; assay: as above; type: cell-based; conditions: sec. alcohol to methyl ketone
Text: as §1

[13] = test system: Methylobacter vinelandii CRL M5Y NRRL B-11,218; assay: as above; type: cell-based; conditions: sec. alcohol to methyl ketone
Text: as §1

[14] = test system: Methylobacterium organophilum CRL 26 NRRL B-11,222; assay: as above; type: cell-based; conditions: sec. alcohol to methyl ketone
Text: as §1

[15] = test system: Methylocystis parvus CRL 18 NRRL B-11,204; assay: as above; type: cell-based; conditions: sec. alcohol to methyl ketone
Text: as §1

[16] = test system: Methylomonas methanica CRL M4P NRRL B-11,205; assay: as above; type: cell-based; conditions: sec. alcohol to methyl ketone
Text: as §1

[17] = test system: Methylosinus trichosporium CRL 15 NRRL B-11,202; assay: as above; type: cell-based; conditions: sec. alcohol to methyl ketone
Text: as §1

[18] = test system: Methylobacter bovis (CRL M1Y) NRRL B-11,216; assay: Oxidation by washed cell suspensions of methane-grown cells; type: cell-based
Protocol: The pH of the nutrient medium was adjusted to 7.0 by the addition of acid or base and 50 ml samples of the nutrient medium were charged into a plurality of 300 ml shaker flasks. The shaker flasks were inoculated with an inoculating loop of cells from an agar plate containing homogeneous colonies of the microorganisms on the plate (the purity of the isolates was confirmed by microscopic examination. The isolates had been maintained on agar plates under an atmosphere of methane and air having a 1:1 v/v gas ratio which had been transferred evey two weeks. The gaseous phase of the inoculated flasks was then replaced with a gas mixture comprised of methane and air having a ratio of 1:1 on a v/v basis. […]
(§2) The cells were harvested by centrifugation at 10,000×g. at 4° C. for 30 minutes. The cell pellet was washed twice with a 0.15 M phosphate buffer at a pH of 7.0 (containing 0.002 M MgCl2). The washed cells were then suspended in a 0.15 M phosphate buffer at pH 7.0.
(§3) A 0.5 ml sample of each washed cell suspension (2 mg cells) was put into 10 ml vials at 4° C. which were sealed with a rubber cap. The gaseous phase of the vials was removed with vacuum and then was replaced with a gas mixture of the oxidative substrate (e.g., methane) and oxygen at a 1:1 v/v ratio. The vials were then incubated at 30 ° C. on a rotary shaker at 300 rpm. Samples of product (3 μl) were withdrawn periodically with a microsyringe and the products were analyzed by gas chromatography (ionization flame detector column).
(§4) The newly discovered and isolated microorganism strains of the present invention were each grown aerobically in the presence of methane in the manner described above. The methane-grown microbial cells were then washed, recovered and put to use in oxidizing an oxidative substrate by the procedure described above except in the case of a liquid substrate 10 μl of the substrate were used.

[19] = test system: Methylomonas streptobacterium (CRL 17 PM3) NRRL B-11,208; assay: as above; type: cell-based
Protocol: (§5) The pH of the nutrient medium was adjusted to 7.0 by the addition of acid or base and 50 ml samples of the nutrient medium were charged into a plurality of 300 ml shaker flasks. The shaker flasks were inoculated with an inoculating loop of cells from an agar plate containing homogeneous colonies of the microorganisms on the plate (the purity of the isolates was confirmed by microscopic examination. The isolates had been maintained on agar plates under an atmosphere of methane and air having a 1:1 v/v gas ratio which had been transferred evey two weeks. The gaseous phase of the inoculated flasks was then replaced with a gas mixture comprised of methane and air having a ratio of 1:1 on a v/v basis. The inoculated flasks were sealed air tight and were incubated on a rotary shaker of orbital radius 2.5 cm at 250 rpm and at 30° C. for two days until turbidity in the medium had developed.
as §2, §3, §4

[20] = test system: Methylosinus sporium (CRL 16 PM2) NRRL B-11,203; assay: as above; type: cell-based
Protocol: as §5, §2, §3, §4

[21] = test system: Methylococcus minimus (CRL 24 PM12) NRRL B-11,220; assay: as above; type: cell-based
Protocol: as §5, §2, §3, §4

[22] = test system: Methylomonas agile (CRL 22 PM9) NRRL B-11,209; assay: as above; type: cell-based
Protocol: as §5, §2, §3, §4

[23] = test system: Methylobacter chroococcum (CRL 23 PM8) NRRL B-11,215; assay: as above; type: cell-based
Protocol: as §5, §2, §3, §4

[24] = test system: Methylobacter chroococcum (CRL M6) NRRL B-11,214; assay: as above; type: cell-based
Protocol: as §5, §2, §3, §4

[25] = test system: Methylobacter vinelandii (CRL M5Y) NRRL B-11,218; assay: as above; type: cell-based; conditions: for Conversion Rate: methane-grown cells, n-pentane to 2-pentanone, n-hexane to 2-hexanone
Protocol: as §5, §2, §3, §4

[26] = test system: Methylococcus capsulatus (CRL M1) NRRL B-11,219; assay: as above; type: cell-based
Protocol: as §5, §2, §3, §4

[27] = test system: Methylococcus capsulatus (CRL 25 PM13) NRRL B-11,221; assay: as above; type: cell-based
Protocol: as §5, §2, §3, §4

[28] = test system: Methylomonas albus (CRL M8Y) NRRL B-11,207; assay: as above; type: cell-based
Protocol: as §5, §2, §3, §4

[29] = test system: Methylobacter bovis (CRL 19 PM5) NRRL B-11,217; assay: as above; type: cell-based
Protocol: as §5, §2, §3, §4

[30] = test system: Methylomonas methanica (CRL M4P) NRRL B-11,205; assay: as above; type: cell-based
Protocol: as §5, §2, §3, §4

[31] = test system: Methylobacterium organophilum (CRL 26 R6) NRRL B-11,222; assay: as above; type: cell-based
Protocol: as §5, §2, §3, §4

[32] = test system: Methylosinus trichosporium (CRL 15 PM1) NRRL B-11,202; assay: as above; type: cell-based
Protocol: as §5, §2, §3, §4

[33] = test system: Methylomonas rosaceus (CRL M10P) NRRL B-11,212; type: cell-based
Protocol: as §5, §2, §3, §4

[34] = test system: Methylomonas methanica (CRL 21 PM7) NRRL B-11,206; assay: Oxidation by washed cell suspensions of methane-grown cells; type: cell-based; conditions: methane-grown cells; n-pentane to 2-pentanone, n-hexane to 2-hexanone
Protocol: as §5, §2, §3, §4

[35] = test system: Methylococcus capsulatus (Texas, ATCC 19,069); assay: Oxidation by cell suspensions of methane-grown cells; type: cell-based; conditions: growth substrate Methane; n-alkane to secondary alcohol
Protocol: as §5, §2, §3
(§6) The conditions for preparing the cell suspensions or the cell-free particulate fractions from methane-grown methylotroph microorganisms is the same as described above.

[36] = test system: Methylosinus trichosporium OB3b (NRRL B-11,196); assay: as above; type: cell-based; conditions: growth substrate Methane; n-alkane to secondary alcohol
Protocol: as §5, §2, §3, §6

[37] = methane-grown cells, n-pentane to 2-pentanone, n-hexane to 2-hexanone

Structure (SMILES): CCCCC(C)O (centres unmarked) [2-Hexanol]
- oxidation by the purified enzyme [1]: catalyzed the oxidation
- Conversion Rate [2]: 0.60 μmoles/hr/mg Protein
- Conversion Rate ([3]; growth substrate Ethanol): 0.72 μmoles/hr/mg of protein
- Conversion Rate ([3]; growth substrate Methanol): 0.8 μmoles/hr/mg of protein
- Conversion Rate ([3]; growth substrate Methylamine): 0.61 μmoles/hr/mg of protein
- Conversion Rate ([3]; growth substrate Methylformate): 0.75 μmoles/hr/mg of protein
- Conversion Rate ([3]; growth substrate Propylamine): 0.52 μmoles/hr/mg of protein
- Conversion Rate [4]: 0.45 μmoles/hr/mg Protein
- Conversion Rate [5]: 0.25 μmoles/hr/mg Protein
- Conversion Rate ([6]; growth substrate Ethanol): 0.12 μmoles/hr/mg of protein
- Conversion Rate ([6]; growth substrate Methanol): 0.25 μmoles/hr/mg of protein
- Conversion Rate ([6]; growth substrate Methylamine): 0.10 μmoles/hr/mg of protein
- Conversion Rate ([6]; growth substrate Methylformate): 0.28 μmoles/hr/mg of protein
- Conversion Rate ([6]; growth substrate Propylamine): 0.11 μmoles/hr/mg of protein
- Conversion Rate ([7]; growth substrate Ethanol): 0.20 μmoles/hr/mg of protein
- Conversion Rate ([7]; growth substrate Methanol): 0.21 μmoles/hr/mg of protein
- Conversion Rate ([7]; growth substrate Methylamine): 0.12 μmoles/hr/mg of protein
- Conversion Rate ([7]; growth substrate Methylformate): 0.25 μmoles/hr/mg of protein
- Conversion Rate ([7]; growth substrate Propylamine): 0.10 μmoles/hr/mg of protein
- Conversion Rate ([8]; growth substrate Ethanol): 0.54 μmoles/hr/mg of protein
- Conversion Rate ([8]; growth substrate Methanol): 0.72 μmoles/hr/mg of protein
- Conversion Rate ([8]; growth substrate Methylamine): 0.62 μmoles/hr/mg of protein
- Conversion Rate ([8]; growth substrate Methylformate): 0.70 μmoles/hr/mg of protein
- Conversion Rate ([8]; growth substrate Propylamine): 0.48 μmoles/hr/mg of protein
- Conversion Rate (Pichia sp. NRRL-Y-11328; growth substrate Ethanol): 0.28 μmoles/hr/mg of protein
- Conversion Rate (Pichia sp. NRRL-Y-11328; growth substrate Methanol): 0.50 μmoles/hr/mg of protein
- Conversion Rate (Pichia sp. NRRL-Y-11328; growth substrate Methylamine): 0.31 μmoles/hr/mg of protein
- Conversion Rate (Pichia sp. NRRL-Y-11328; growth substrate Methylformate): 0.48 μmoles/hr/mg of protein
- Conversion Rate (Pichia sp. NRRL-Y-11328; growth substrate Propylamine): 0.21 μmoles/hr/mg of protein
- Conversion Rate [9]: 0.51 μmoles/hr/mg Protein
- Conversion Rate [10]: 0.21 μmoles/hr/mg Protein
- Conversion Rates [11]: 0.08 μmoles/hr/mg protein
- Conversion Rates [12]: 0.02 μmoles/hr/mg protein
- Conversion Rates [13]: 0.02 μmoles/hr/mg protein
- Conversion Rates [14]: 0.09 μmoles/hr/mg protein
- Conversion Rates [15]: 0.05 μmoles/hr/mg protein
- Conversion Rates [16]: 0.03 μmoles/hr/mg protein
- Conversion Rates [17]: 0.06 μmoles/hr/mg protein

Structure (SMILES): C=CCC [Butene-1]
- Oxidative Conversion Rates [18]: 1.1
- Oxidative Conversion Rates [19]: 2.5
- Oxidative Conversion Rates [20]: 1.2
- Oxidative Conversion Rates [21]: 1.5
- Oxidative Conversion Rates [22]: 0.5
- Oxidative Conversion Rates [23]: 0.82
- Oxidative Conversion Rates [24]: 0.7
- Oxidative Conversion Rates ([25]; methane-grown washed cells, 30° C., methane to methanol, alkene to 1,2-epoxide): 0 μmole/hr/mg protein
- Oxidative Conversion Rates [26]: 1.3
- Oxidative Conversion Rates [27]: 1.9
- Oxidative Conversion Rates [28]: 1.8
- Oxidative Conversion Rates [29]: 1.3
- Oxidative Conversion Rates [30]: 2.8
- Oxidative Conversion Rates [31]: 0.9
- Oxidative Conversion Rates [32]: 1.8
- Oxidative Conversion Rates [33]: 3.1

Structure (SMILES): CCCCCC [n-Hexane]
- Conversion Rate [25]: 0.01 μmole/hr/mg protein
- Conversion Rate [26]: 0.08
- Conversion Rate [34]: 0.01 μmole/hr/mg protein
- Conversion Rate [32]: 0.04
- Conversion Rate [35]: 0.01 μmoles/hr/^5 mg. protein
- Conversion Rate [36]: 0.01 μmoles/hr/^5 mg. protein

Structure (SMILES): CCCCC [n-Pentane]
- Conversion Rate [25]: 0.04 μmole/hr/mg protein
- Conversion Rate [26, 37]: 0.15 μmole/hr/mg protein
- Conversion Rate [34]: 0.06 μmole/hr/mg protein
- Conversion Rate ([31]; growth substrate Methane, n-alkane to secondary alcohol): 0.01 μmoles/hr/^5 mg. protein
- Conversion Rate [31, 37]: 0.18 μmole/hr/mg protein
- Conversion Rate [32, 37]: 0.08 μmole/hr/mg protein
- Conversion Rate [35]: 0.032 μmoles/hr/^5 mg. protein
- Conversion Rate [36]: 0.06 μmoles/hr/^5 mg. protein
